Assay [1] relates to insulin growth factor 1 (IGF-1). Put plainly: IGF-1 levels in secretomas of treated HFDPC. Type of assay: cell-based, human. As to conditions: 24 h and 48 h after treatment, data not shown. The method, then: Secretomas (supernatants that could be recovered from the HFDPC cultures challenged with the tested materials of Table 1) were analysed for detecting the presence and levels of animal cell growth factors and of microRNAs associated with hair growth in dermal papilla. […] Similar results (at 24 and 48 h) were observed when analysing the levels of fibroblast growth factor 7 (FGF-7). Both growth factors are associated with the promotion of hair growth.

Assay [2] concerns males and females with hair-loss problems. Put plainly: In vivo test: capillary (hair) density by Trichoscan microphotography in volunteers. Further details: species or system human. The protocol: (§1) Curcuma longa cell-free supernatant prepared as indicated in Example 2, as well as the peptide of SEQ ID NO: 6 in the PBS buffered fortifying solution 2× disclosed in Example 1 were tested in males and females (n=60, from 18 to 60 years old) with hair-loss problems. There were excluded those volunteers that received a capillary treatment three months before the assay, volunteers with cutanic pathologies at scalp (psoriasis, dermatitis, etc.) and allergy to compounds in the formulations.
(§2) Tested compounds were daily applied.
(§3) At time 0 (T0) there were taken scalp pictures (frontal and occipital parts), trichograms for determining the hair phase cycle (telogen or anagen phase), the combing test (number of hair lost during combing), and capillary density by microphotography with Trichoscan®.
(§4) At t=45 days and t=90 days, there were performed the combing test and the density tests (Trichoscan®)
(§5) At t=150 days again as in t=0.
(§6) Volunteers were separated in three groups. Group 1 receiving SEQ ID NO: 6 in the PBS buffered fortifying solution 2× disclosed in Example 1; Group 2 receiving Curcuma longa cell-free supernatant prepared as indicated in Example 2, and Group 3 the placebo.
Data are depicted in next Table 2 for capillary density. This table includes the average values determined of capillary density increase after evaluating in each volunteer the number of hairs in a 0.25 cm^2 are, capillary density at t=0 and t=90, and said increase in relation to t=0 value

For assay [3] the test system is unchanged. As to the kind of experiment: In vivo test: combing test (number of hair lost during combing) in volunteers. Further details: species or system human. The protocol:
as §1, §2, §3, §4, §5, §6
In particular, this table includes the average values determined for combing test (number of hair lost during combing). From the combing test results at t=0, t=45 and t=90 the percentage of reduction of hair loss is calculated contrasting values of t=0 with the values at t=45 and at t=90.

[4] abbreviates: group mean, minimal and maximal values not considered.
Setting [5] is: group mean, combing test, minimal and maximal values not considered.
Where [6] appears, read: individual volunteers, negative = fewer hairs lost.

“And” between values parts separate entries of the source, which are not always exact repeats. Equal entries are not always repeated. Some results are limits rather than exact numbers.

Consider “CH3—C(O)—YIYT-NH2 (Ac-YIYT-NH2) [SEQ ID NO: 6, in vivo: dissolved 0.025% w/w in PBS buffered fortifying solution 2×]”, for which, in assay [1], the “levels of insulin growth factor 1 (IGF-1)” value is listed as “higher levels were meaningful”. In assay [2] (concluded from the mean hair density increase at T150), the “new hairs appeared in the whole hair” value is reported as no more than 14000 hairs. For the same substance, the Capillary density increase in assay [2] (group average, t=90 in relation to t=0, daily application (Table 4)) was found to be 14.66%. In assay [2] (setting [4]), the “HAIR DENSITY INCREASE T90, Mean” value came to 14.03% and the “HAIR DENSITY INCREASE T150, Mean” value was found to be 19.27%. Besides, the “HAIR DENSITY INCREASE T90” value in assay [2] (individual volunteers, T90 vs T0) is 16.66% and 6.06% and 40.91% and 11.11% (2×) and 22.73% and 34.37% and 5.40% and 17.15% and 7.14% and 0.00% (3×) and −9.62%(*) and 70.01%(*) and 4.76% and 39.99% and 9.67% and 11.54%. Moreover, the “HAIR DENSITY INCREASE T150” value in assay [2] (individual volunteers, T150 vs T0) is 24.99% and 6.06% and 36.36% and 14.63% and 18.18% and 21.87% and −5.41% and 2.86% and 35.71% and 0.00% (2×) and 14.81% and −7.69%(*) and 60.01% and 38.09% and 7.40% and 73.32%(*) and 9.67% and 42.31%. Moreover, the “HAIR DENSITY 1/cm2 T90” value in assay [2] (individual volunteers, T90 days) is 111.38 1/cm2 and 139.22 1/cm2 and 123.31 1/cm2 (2×) and 119.33 1/cm2 (3×) and 107.4 1/cm2 (2×) and 171.04 1/cm2 and 155.13 1/cm2 and 163.09 1/cm2 and 115.35 1/cm2 (2×) and 186.95 1/cm2 and 135.24 1/cm2 (2×) and 87.51 1/cm2 and 83.53 1/cm2. Also, the “Nr HAIRS/0.25 cm2 T90” value in assay [2] (individual volunteers, T90 days, daily application) is 28 HAIRS/0.25 cm2 and 35 HAIRS/0.25 cm2 and 31 HAIRS/0.25 cm2 (2×) and 30 HAIRS/0.25 cm2 (3×) and 27 HAIRS/0.25 cm2 (2×) and 43 HAIRS/0.25 cm2 and 39 HAIRS/0.25 cm2 and 41 HAIRS/0.25 cm2 and 29 HAIRS/0.25 cm2 (2×) and 47 HAIRS/0.25 cm2 and 34 HAIRS/0.25 cm2 (2×) and 22 HAIRS/0.25 cm2 and 21 HAIRS/0.25 cm2. Besides, in assay [2] (individual volunteers, T150 days), the “HAIR DENSITY 1/cm2 T150” value was 119.33 1/cm2 (2×) and 139.22 1/cm2 (2×) and 123.11 1/cm2 and 103.42 1/cm2 (2×) and 155.13 1/cm2 and 143.2 1/cm2 and 151.15 1/cm2 and 115.35 1/cm2 (3×) and 123.31 1/cm2 (2×) and 190.93 1/cm2 and 127.29 1/cm2 and 135.24 1/cm2 and 147.18 1/cm2. Moreover, the “Nr HAIRS/0.25 cm2 T150” value in assay [2] (individual volunteers, T150 days, daily application) was 30 HAIRS/0.25 cm2 (2×) and 35 HAIRS/0.25 cm2 (2×) and 31 HAIRS/0.25 cm2 (3×) and 26 HAIRS/0.25 cm2 (2×) and 39 HAIRS/0.25 cm2 and 36 HAIRS/0.25 cm2 and 38 HAIRS/0.25 cm2 and 29 HAIRS/0.25 cm2 (3×) and 48 HAIRS/0.25 cm2 and 32 HAIRS/0.25 cm2 and 34 HAIRS/0.25 cm2 and 37 HAIRS/0.25 cm2. Besides, the “reduction of the % of hair loss (in words)” value in assay [3] (T45, T90 and T150 compared with T0) is “meaningful reduction of the % of hair loss”. In assay [3] (setting [5]), the “% REDUCTION OF HAIR LOSS T0 vs. T150, Mean” value amounted to 68.15%; the “% hair-loss reduction t = 0 vs t = 45, mean” value was determined as 40.48%; the “% hair-loss reduction t = 0 vs t = 90, mean” value came out at 39.72%. Besides, the “COMBING TEST T45” value in assay [3] (individual volunteers, number of hair lost during combing, day 45) is 7 and 54 and 23 and 13 and 88 and 184 and 34 and 58 and 60 and 62 and 50 and 10 and 31 and 28 and 101 and 66 and 24 and 14 and 46 and 92. The “COMBING TEST T90” value in assay [3] (individual volunteers, number of hair lost during combing, day 90) was 6 and 88 and 28 (2×) and 36 and 154 and 60 and 50 and 61 and 84 and 27 and 12 and 45 and 118 and 91 and 23 and 22 and 59 and 62. For the same substance, the “COMBING TEST T150” value in assay [3] (individual volunteers, number of hair lost during combing, day 150) is 5 and 13 (2×) and 19 (2×) and 22 and 24 and 18 and 12 and 20 (3×) and 23 and 29 and 95 and 42 and 167 and 16 and 36. In addition, in assay [3] (setting [6]), the “% REDUCTION OF HAIR LOSS T0 VS. T45” value is −86.27% and −55.74% and −46.51% and −69.05% and 72.55% and 183.08(*) % and −43.33% and −44.23% and −47.83% and −78.32% and −30.56% and −98.13(*) % and −36.73% and −68.54% and −31.29% and −67.00% and −22.58% and −64.10% and −42.50% and 33.33%; the “% REDUCTION OF HAIR LOSS T0 VS. T90” value was −88.24% and −27.87% and −34.88% and −33.33% and −29.41% and 136.92(*) % and 0.00% and −51.92% and −46.96% and −70.63% and −62.50% and −97.76(*) % and −49.44% and −19.73% and −54.50% and −25.81% and −43.59% and −26.25% and −10.14%; the “% REDUCTION OF HAIR LOSS T0 vs. T150” value is −90.20% and −89.34% and −69.77% and −54.76% and −56.86% and −63.08% and −70.00% and −88.46% and −82.61% and −91.96(*) % and −59.72% and −82.24% and −78.65% and −71.43% and −16.50% and −35.48(*) % and −58.97% and −55.00% and −71.01%.

Values taken from patent US12570694B2, “Peptides and pharmaceutical, nutraceutical or veterinary compositions for hair loss prevention and/or treatment” (VYTRUS BIOTECH, S.L., priority 2016, dated 2026).
